According to patent publication US9611267B2, “Substituted tricyclic compounds as FGFR inhibitors” (Incyte Corporation, priority 2012, dated 2017):

Experiments:
Format in all cases: biochemical
FGFR2 = FGFR2 (Homo sapiens (Human), UniProt P21802); test: FGFR enzymatic assay (FRET peptide phosphorylation), FGFR2; conditions: FGFR2 enzyme 0.01 nM, ATP 100 μM
How it was run: (§1)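 Recombinant kinase was pre-incubated 5–10 min with serially diluted inhibitor in HEPES buffer (10 mM MgCl2, 5 mM DTT, pH 7.5; buffer described for FGFR3). Peptide phosphorylation ran 1 h at 25 °C and was detected by FRET after ~1 h equilibration. IC50 values come from variable-slope sigmoidal fits.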

FGFR3 = FGFR3 (Homo sapiens (Human), UniProt P22607); test: FGFR enzymatic assay (FRET peptide phosphorylation), FGFR3; conditions: FGFR3 enzyme (Millipore), ATP 140 μM
Chain of FGFR3 (P22607 23-806): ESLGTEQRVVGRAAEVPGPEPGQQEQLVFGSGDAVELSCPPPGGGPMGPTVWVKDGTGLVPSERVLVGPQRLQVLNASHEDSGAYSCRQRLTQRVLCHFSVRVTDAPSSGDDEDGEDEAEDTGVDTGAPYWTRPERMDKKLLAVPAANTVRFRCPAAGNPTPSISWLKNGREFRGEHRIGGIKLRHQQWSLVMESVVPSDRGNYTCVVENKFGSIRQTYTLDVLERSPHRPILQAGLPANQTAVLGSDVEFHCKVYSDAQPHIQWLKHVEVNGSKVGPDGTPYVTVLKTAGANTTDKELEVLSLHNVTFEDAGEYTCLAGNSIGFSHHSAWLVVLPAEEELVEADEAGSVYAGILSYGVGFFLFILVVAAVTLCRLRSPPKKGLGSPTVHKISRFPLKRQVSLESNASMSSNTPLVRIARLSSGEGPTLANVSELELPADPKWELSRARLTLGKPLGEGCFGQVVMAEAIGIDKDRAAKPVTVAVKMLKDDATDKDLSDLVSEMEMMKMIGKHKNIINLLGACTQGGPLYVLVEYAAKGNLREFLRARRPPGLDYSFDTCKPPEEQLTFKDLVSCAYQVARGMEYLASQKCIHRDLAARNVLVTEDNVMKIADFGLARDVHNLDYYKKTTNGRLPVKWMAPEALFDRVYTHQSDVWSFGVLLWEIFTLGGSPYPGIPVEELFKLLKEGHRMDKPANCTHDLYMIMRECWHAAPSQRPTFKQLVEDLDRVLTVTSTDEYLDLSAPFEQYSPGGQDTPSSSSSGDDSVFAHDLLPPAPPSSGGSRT
How it was run: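 FRET assay of peptide phosphorylation by FGFR3 in HEPES pH 7.5 buffer with MgCl2, EGTA, Tween-20 and DTT. Enzyme was pre-incubated 5-10 min with compound, and the reaction ran 1 hr at 25° C. IC50 came from a variable-slope sigmoidal fit.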

FGFR1 = FGFR1 (Homo sapiens (Human), UniProt P11362); test: FGFR enzymatic assay (FRET peptide phosphorylation), FGFR1; conditions: FGFR1 enzyme 0.02 nM, ATP 210 μM
Chain of FGFR1 (P11362 22-822): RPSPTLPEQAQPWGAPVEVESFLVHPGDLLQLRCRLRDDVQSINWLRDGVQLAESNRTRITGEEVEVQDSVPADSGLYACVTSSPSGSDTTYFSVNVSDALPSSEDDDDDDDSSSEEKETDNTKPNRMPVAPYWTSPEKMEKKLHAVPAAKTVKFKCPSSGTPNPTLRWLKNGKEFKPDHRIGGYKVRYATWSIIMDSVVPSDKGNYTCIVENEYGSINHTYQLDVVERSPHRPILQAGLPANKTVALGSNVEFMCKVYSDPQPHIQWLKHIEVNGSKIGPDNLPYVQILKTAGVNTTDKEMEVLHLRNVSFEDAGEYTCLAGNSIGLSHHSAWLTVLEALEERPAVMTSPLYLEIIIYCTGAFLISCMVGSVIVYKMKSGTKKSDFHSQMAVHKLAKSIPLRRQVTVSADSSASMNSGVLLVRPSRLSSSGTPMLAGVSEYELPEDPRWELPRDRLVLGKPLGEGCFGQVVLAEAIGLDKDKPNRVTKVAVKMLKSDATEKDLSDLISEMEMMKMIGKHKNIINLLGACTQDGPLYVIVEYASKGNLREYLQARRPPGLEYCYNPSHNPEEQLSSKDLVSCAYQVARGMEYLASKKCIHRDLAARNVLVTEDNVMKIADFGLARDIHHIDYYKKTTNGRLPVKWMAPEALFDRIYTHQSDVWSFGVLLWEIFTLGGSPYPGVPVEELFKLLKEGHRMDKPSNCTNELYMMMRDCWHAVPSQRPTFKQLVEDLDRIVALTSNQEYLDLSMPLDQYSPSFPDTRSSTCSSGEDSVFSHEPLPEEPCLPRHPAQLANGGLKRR
How it was run: as §1

Measured: IC50

Chain of FGFR2 (P21802 22-821): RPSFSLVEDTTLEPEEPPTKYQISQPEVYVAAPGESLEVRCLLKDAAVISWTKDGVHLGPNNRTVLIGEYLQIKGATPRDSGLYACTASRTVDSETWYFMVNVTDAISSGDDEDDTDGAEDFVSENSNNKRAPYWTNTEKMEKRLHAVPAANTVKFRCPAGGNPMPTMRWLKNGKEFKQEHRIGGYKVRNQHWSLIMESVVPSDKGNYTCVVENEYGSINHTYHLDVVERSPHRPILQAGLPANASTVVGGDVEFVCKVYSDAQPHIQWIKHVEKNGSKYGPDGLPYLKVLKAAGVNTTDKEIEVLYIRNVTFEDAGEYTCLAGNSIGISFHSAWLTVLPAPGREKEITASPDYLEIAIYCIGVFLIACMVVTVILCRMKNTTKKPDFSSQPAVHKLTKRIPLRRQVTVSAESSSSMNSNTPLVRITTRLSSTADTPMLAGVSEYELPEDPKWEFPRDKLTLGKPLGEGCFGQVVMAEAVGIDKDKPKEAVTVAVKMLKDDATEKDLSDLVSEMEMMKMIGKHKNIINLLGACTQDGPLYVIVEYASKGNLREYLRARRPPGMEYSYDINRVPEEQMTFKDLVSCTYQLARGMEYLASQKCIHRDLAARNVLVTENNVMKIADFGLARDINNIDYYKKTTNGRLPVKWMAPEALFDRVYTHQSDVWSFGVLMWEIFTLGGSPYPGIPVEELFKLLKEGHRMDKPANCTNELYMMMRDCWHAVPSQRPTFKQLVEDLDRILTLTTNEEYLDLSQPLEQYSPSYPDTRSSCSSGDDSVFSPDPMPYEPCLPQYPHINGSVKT

CCN1CCN(Cc2cc3c4c(cnc3[nH]2)CN(c2c(F)c(OC)cc(OC)c2F)C(=O)N4c2ccccc2F)CC1 [Example 181, 3-(2,6-difluoro-3,5-dimethoxyphenyl)-8-[(4-ethylpiperazin-1-yl)methyl]-1-(2-fluorophenyl)-1,3,4,7-tetrahydro-2H-pyrrolo[3′,2′:5,6]pyrido[4,3-d]pyrimidin-2-one]
< 100 nM: all assays above

COc1cc(OC)c(F)c(N2Cc3cnc4[nH]c(CN5CCOCC5)cc4c3N(C3CCC3)C2=O)c1F [Example 182, 1-cyclobutyl-3-(2,6-difluoro-3,5-dimethoxyphenyl)-8-(morpholin-4-ylmethyl)-1,3,4,7-tetrahydro-2H-pyrrolo[3′,2′:5,6]pyrido[4,3-d]pyrimidin-2-one]
< 100 nM: all assays above

COc1cc(OC)c(F)c(N2Cc3cnc4[nH]c(CCN5CCOCC5)cc4c3N(C3CCC3)C2=O)c1F [Example 183, 1-cyclobutyl-3-(2,6-difluoro-3,5-dimethoxyphenyl)-8-(2-morpholin-4-ylethyl)-1,3,4,7-tetrahydro-2H-pyrrolo[3′,2′:5,6]pyrido[4,3-d]pyrimidin-2-one]
< 100 nM: all assays above

CCCN1C(=O)N(c2c(F)c(OC)cc(OC)c2F)Cc2cnc3[nH]c(CN4CCOCC4)cc3c21 [Example 184, 3-(2,6-difluoro-3,5-dimethoxyphenyl)-8-(morpholin-4-ylmethyl)-1-propyl-1,3,4,7-tetrahydro-2H-pyrrolo[3′,2′:5,6]pyrido[4,3-d]pyrimidin-2-one]
< 100 nM: all assays above

CCN1C(=O)N(c2c(F)c(OC)cc(OC)c2F)Cc2cnc3[nH]c(CCN4CCOCC4)cc3c21 [Example 185, 3-(2,6-difluoro-3,5-dimethoxyphenyl)-1-ethyl-8-(2-morpholin-4-ylethyl)-1,3,4,7-tetrahydro-2H-pyrrolo[3′,2′:5,6]pyrido[4,3-d]pyrimidin-2-one]
< 100 nM: all assays above

COc1cc(OC)c(F)c(N2Cc3cnc4[nH]c(CN5CCOCC5)cc4c3N(C3CC3)C2=O)c1F [Example 186, 1-cyclopropyl-3-(2,6-difluoro-3,5-dimethoxyphenyl)-8-(morpholin-4-ylmethyl)-1,3,4,7-tetrahydro-2H-pyrrolo[3′,2′:5,6]pyrido[4,3-d]pyrimidin-2-one]
< 100 nM: all assays above

COc1cc(OC)c(F)c(N2Cc3cnc4[nH]c(CN5CCN(C)CC5)cc4c3N(C3CC3)C2=O)c1F [Example 187, 1-cyclopropyl-3-(2,6-difluoro-3,5-dimethoxyphenyl)-8-[(4-methylpiperazin-1-yl)methyl]-1,3,4,7-tetrahydro-2H-pyrrolo[3′,2′:5,6]pyrido[4,3-d]pyrimidin-2-one]
< 100 nM: all assays above

CCN1CCN(Cc2cc3c4c(cnc3[nH]2)CN(c2c(F)c(OC)cc(OC)c2F)C(=O)N4C2CC2)CC1 [Example 188, 1-cyclopropyl-3-(2,6-difluoro-3,5-dimethoxyphenyl)-8-[(4-ethylpiperazin-1-yl)methyl]-1,3,4,7-tetrahydro-2H-pyrrolo[3′,2′:5,6]pyrido[4,3-d]pyrimidin-2-one]
< 100 nM: all assays above

COc1cc(OC)c(F)c(N2Cc3cnc4[nH]c(CN5CCOCC5)cc4c3N(c3ccc(F)cc3)C2=O)c1F [Example 189, 3-(2,6-difluoro-3,5-dimethoxyphenyl)-1-(4-fluorophenyl)-8-(morpholin-4-ylmethyl)-1,3,4,7-tetrahydro-2H-pyrrolo[3′,2′:5,6]pyrido[4,3-d]pyrimidin-2-one]
< 100 nM: all assays above

COc1cc(OC)c(F)c(N2Cc3cnc4[nH]c(CN5CCN(C)CC5)cc4c3N(c3ccc(F)cc3)C2=O)c1F [Example 190, 3-(2,6-difluoro-3,5-dimethoxyphenyl)-1-(4-fluorophenyl)-8-[(4-methylpiperazin-1-yl)methyl]-1,3,4,7-tetrahydro-2H-pyrrolo[3′,2′:5,6]pyrido[4,3-d]pyrimidin-2-one]
< 100 nM: all assays above

CCN1CCN(Cc2cc3c4c(cnc3[nH]2)CN(c2c(F)c(OC)cc(OC)c2F)C(=O)N4c2ccc(F)cc2)CC1 [Example 191, 3-(2,6-difluoro-3,5-dimethoxyphenyl)-1-(4-fluorophenyl)-8-[(4-ethylpiperazin-1-yl)methyl]-1,3,4,7-tetrahydro-2H-pyrrolo[3′,2′:5,6]pyrido[4,3-d]pyrimidin-2-one]
< 100 nM: all assays above

COc1cc(OC)c(F)c(N2Cc3cnc4[nH]c(CN5CCN(C)CC5)cc4c3N(c3cccc(F)c3F)C2=O)c1F [Example 192, 3-(2,6-difluoro-3,5-dimethoxyphenyl)-1-(2,3-difluorophenyl)-8-[(4-methylpiperazin-1-yl)methyl]-1,3,4,7-tetrahydro-2H-pyrrolo[3′,2′:5,6]pyrido[4,3-d]pyrimidin-2-one]
< 100 nM: all assays above

CCN1CCN(Cc2cc3c4c(cnc3[nH]2)CN(c2c(F)c(OC)cc(OC)c2F)C(=O)N4c2cccc(F)c2F)CC1 [Example 193, 3-(2,6-difluoro-3,5-dimethoxyphenyl)-1-(2,3-difluorophenyl)-8-[(4-ethylpiperazin-1-yl)methyl]-1,3,4,7-tetrahydro-2H-pyrrolo[3′,2′:5,6]pyrido[4,3-d]pyrimidin-2-one]
< 100 nM: all assays above

COc1cc(OC)c(F)c(N2Cc3cnc4[nH]c(CN5CCOCC5)cc4c3N(c3ccncc3)C2=O)c1F [Example 194, 3-(2,6-difluoro-3,5-dimethoxyphenyl)-8-(morpholin-4-ylmethyl)-1-pyridin-4-yl-1,3,4,7-tetrahydro-2H-pyrrolo[3′,2′:5,6]pyrido[4,3-d]pyrimidin-2-one]
< 100 nM: all assays above

COc1cc(OC)c(F)c(N2Cc3cnc4[nH]c(CN5CCN(C)CC5)cc4c3N(c3ccncc3)C2=O)c1F [Example 195, 3-(2,6-difluoro-3,5-dimethoxyphenyl)-8-[(4-methylpiperazin-1-yl)methyl]-1-pyridin-4-yl-1,3,4,7-tetrahydro-2H-pyrrolo[3′,2′:5,6]pyrido[4,3-d]pyrimidin-2-one]
< 100 nM: all assays above

COc1cc(OC)c(F)c(N2Cc3cnc4[nH]c(CCN5CCOCC5)cc4c3N(c3ccccc3F)C2=O)c1F [Example 196, 3-(2,6-difluoro-3,5-dimethoxyphenyl)-1-(2-fluorophenyl)-8-(2-morpholin-4-ylethyl)-1,3,4,7-tetrahydro-2H-pyrrolo[3′,2′:5,6]pyrido[4,3-d]pyrimidin-2-one]
< 100 nM: all assays above

COc1cc(OC)c(F)c(N2Cc3cnc4[nH]c(CCN5CCN(C)CC5)cc4c3N(c3ccccc3F)C2=O)c1F [Example 197, 3-(2,6-difluoro-3,5-dimethoxyphenyl)-1-(2-fluorophenyl)-8-[2-(4-methylpiperazin-1-yl)ethyl]-1,3,4,7-tetrahydro-2H-pyrrolo[3′,2′:5,6]pyrido[4,3-d]pyrimidin-2-one]
< 100 nM: all assays above

CCN1CCN(CCc2cc3c4c(cnc3[nH]2)CN(c2c(F)c(OC)cc(OC)c2F)C(=O)N4c2ccccc2F)CC1 [Example 198, 3-(2,6-difluoro-3,5-dimethoxyphenyl)-1-(2-fluorophenyl)-8-[2-(4-ethylpiperazin-1-yl)ethyl]-1,3,4,7-tetrahydro-2H-pyrrolo[3′,2′:5,6]pyrido[4,3-d]pyrimidin-2-one]
< 100 nM: all assays above

COc1cc(OC)c(F)c(N2Cc3cnc4[nH]ncc4c3N(c3cccc(C(=O)NC(C)C)c3F)C2=O)c1F [Example 199, 3-[3-(2,6-difluoro-3,5-dimethoxyphenyl)-2-oxo-2,3,4,7-tetrahydro-1H-pyrazolo[4′,3′:5,6]pyrido[4,3-d]pyrimidin-1-yl]-2-fluoro-N-isopropylbenzamide]
< 100 nM: all assays above

COc1cc(OC)c(F)c(N2Cc3cnc4[nH]ncc4c3N(c3cccc(C(=O)NC4CC4)c3F)C2=O)c1F [Example 200, N-cyclopropyl-3-[3-(2,6-difluoro-3,5-dimethoxyphenyl)-2-oxo-2,3,4,7-tetrahydro-1H-pyrazolo[4′,3′:5,6]pyrido[4,3-d]pyrimidin-1-yl]-2-fluorobenzamide]
< 100 nM: all assays above
